Reference: publication PMC9218685, “Legume Plant Peptides as Sources of Novel Antimicrobial Molecules Against Human Pathogens” (Frontiers in Molecular Biosciences, 2022)
In brackets after ≈: the same amount, converted by molar mass. Entries after “also recorded” stand apart in the source; their conditions may differ. Like-named read-outs stand apart in the source and are kept apart here. Peptide text beside a SMILES is read from it.

Columns and labels:
Type in all cases: cell-based
[1] = system: Enterococcus faecalis (ATCC 29212); conditions: for Ability to kill E. faecalis: 3 h, ~10^7 log phase bacteria, peptides ≤25 µM
From the text: (§1) The following pathogenic bacterial strains were used: The Gram-positive Enterococcus faecalis (ATCC 29212), Staphylococcus aureus (HNCMO112011), Listeria monocytogenes (ATCC 19111) and the Gram-negative Pseudomonas aeruginosa (ATCC 27853), Escherichia coli (ATCC 8739), Salmonella enterica (ATCC 13076), Klebsiella pneumoniae (NCTC 13440), Acinetobacter baumannii (ATCC 17978) obtained from the ATCC (United States) and NCTC (National Collection of Type Cultures–England). For the antifungal experiment the Candida albicans W01 strain ([Ördögh et al., 2014]) was used. Antimicrobial activities of peptides against ∼10^7 log phase bacteria were tested in Potassium-Phosphate Buffer (PPB, pH 7.4) as described by [Jenei et al. (2020)] while anti-Candida assays were done according to [Szerencsés et al. (2021)]. The two-fold dilution series of peptides ranged from 25 μM to 0.125 μM, while that of the antibiotics ampicillin (Merck) and miconazole (Duchefa Biochemie) from […] to 0.1 μM. The lowest concentration of the antimicrobial agents, which completely eliminated viable bacteria or C. albicans were considered as the minimal bactericidal concentration (MBC) and minimal fungicidal concentration (MFC).
(§2) The minimal bactericidal concentrations (MBCs) were determined after 3 h of treatment of ∼10^7 log phase bacteria with 2-fold serial dilution of peptides from 25 µM to 0.8 µM. Only 25 of the 50 cationic M. truncatula peptides had activity at ≤25 µM (Supplementary Table S1). […] Three peptides were only active against two bacterial strains; NCR649 against L. monocytogenes and A. baumannii, NCR281 against L. monocytogenes and P. aeruginosa and NCR350 against A. baumannii and P. aeruginosa. […] None of the anionic NCR peptides affected the survival of the tested bacterial strains.

[2] = system: Candida albicans W01 strain; assay: microbe, parasite or virus in culture; conditions: read-out: MFC, minimal fungicidal concentration against C. albicans
From the text: as §1

[3] = system: Acinetobacter baumannii (ATCC 17978); assay: microbe, parasite or virus in culture; conditions: for MBC: pH 7.4, read-out: MBC, minimal bactericidal concentration against A. baumannii
From the text: as §1, §2

[4] = system: Pseudomonas aeruginosa (ATCC 27853); conditions: for MBC Pseudomonas aeruginosa: ATCC 27853, 3 h
From the text: as §1, §2

[5] = system: Listeria monocytogenes (ATCC 19111); conditions: for MBC Listeria monocytogenes: ATCC 19111, 3 h
From the text: as §1, §2

[6] = system: Escherichia coli (ATCC 8739); conditions: for MBC Escherichia coli: ATCC 8739, 3 h
From the text: as §1, §2

[7] = system: E. coli, S. enteritidis, P. aeruginosa, L. monocytogenes, S. aureus, E. faecalis, K. pneumoniae and A. baumannii; assay: Antimicrobial activity assay, spectrum over the eight tested pathogenic bacteria; conditions: 3 h treatment of ~10^7 log phase bacteria, peptides 25 to 0.8 µM; active = MBC ≤25 µM
From the text: as §1
We investigated the antimicrobial activity of 78 NCR peptides from M. truncatula and 12 NCRs from other IRLC legumes as well as their shorter derivatives against E. coli, S. enteritidis, P. aeruginosa, L. monocytogenes, S. aureus, E. faecalis, K. pneumoniae and A. baumannii (Supplementary Table S1). In the selection of the M. truncatula peptides, we considered their symbiotic expression levels but also their physicochemical properties. The antimicrobial activity of NCRs has so far been attributed to cationic peptides, with the exception of one anionic peptide. To investigate whether other anionic NCRs are antimicrobial, in addition to the cationic peptides, neutral and anionic NCRs were also included covering a broad range of peptides with different net charges (NC: from 7.8 to −10.2) and isoelectric points (pI: from 10.69 to 2.95). 50 peptides had positive net charge and pI > 7.0, while 28 peptides had negative net charge and pI < 7.0 (Supplementary Table S1A). Of the other legumes, only cationic NCR peptides were studied (Supplementary Table S1B).
as §2

[8] = 3 h, ~10^7 log phase bacteria, peptides ≤25 µM

Structure (SMILES): CC[C@H](C)[C@H](N)C(=O)N[C@H](C(=O)N[C@H](C(=O)N[C@@H](CC(N)=O)C(=O)N[C@@H](CCCNC(=N)N)C(=O)N[C@@H](CCCNC(=N)N)C(=O)N[C@@H](CS)C(=O)N[C@@H](CCCCN)C(=O)N[C@@H](CO)C(=O)N[C@@H](Cc1c[nH]cn1)C(=O)N[C@@H](CCCCN)C(=O)N[C@@H](CC(=O)O)C(=O)N[C@@H](CS)C(=O)N1CCC[C@H]1C(=O)NCC(=O)N[C@@H](Cc1ccccc1)C(=O)NCC(=O)N[C@@H](CCCCN)C(=O)N[C@@H](CS)C(=O)N[C@@H](CC(C)C)C(=O)N[C@@H](CCCCN)C(=O)N[C@@H](CC(C)C)C(=O)N[C@@H](CCCCN)C(=O)N[C@@H](CS)C(=O)N[C@H](C(=O)N[C@@H](Cc1ccc(O)cc1)C(=O)N[C@H](C(=O)N1CCC[C@H]1C(=O)N[C@@H](CCCCN)C(=O)N[C@@H](CCCNC(=N)N)C(=O)O)[C@@H](C)O)C(C)C)[C@@H](C)O)[C@@H](C)CC [GoNCR308] (H-IITNRRCKSHKDCPGFGKCLKLKCVYTPKR-OH; N-terminus assumed)
- Ability to kill E. faecalis [1]: able to kill

Structure (SMILES): Clc1ccc(COC(Cn2ccnc2)c2ccc(Cl)cc2Cl)c(Cl)c1 (stereo not shown) [Miconazole, reference compound]
- MFC ([2]; Candida albicans, W01STRAIN, C. albicans W01, two-fold dilution series, lowest concentration completely eliminating viable C. albicans): 50600 µM (≈ 21000 µg/mL)

Structure (SMILES): CC(C)[C@H](NC(=O)CNC(=O)[C@H](CCCNC(=N)N)NC(=O)[C@H](CCCCN)NC(=O)[C@@H]1CCCN1C(=O)[C@@H](N)CCCCN)C(=O)N[C@@H](CC(N)=O)C(=O)N[C@@H](Cc1ccccc1)C(=O)N[C@@H](CCCNC(=N)N)C(=O)N[C@@H](CS)C(=O)N[C@@H](CCCNC(=N)N)C(=O)N[C@@H](CCCCN)C(=O)NCC(=O)N[C@@H](CCCCN)C(N)=O [MsNCR463_17-30] (H-KPKRGVNFRCRKGK-NH2)
- MFC ([2]; W01 strain): 3.125 µM (≈ 5.23 µg/mL)
- MBC ([3]; ATCC 17978, 3 h): 3.125 µM (≈ 5.23 µg/mL)

Structure (SMILES): CC[C@H](C)[C@H](NC(=O)[C@H](Cc1ccc(O)cc1)NC(=O)[C@H](C)N)C(=O)N[C@@H](CCC(=O)O)C(=O)N[C@@H](CS)C(=O)N[C@@H](CCC(=O)O)C(=O)N[C@H](C(=O)N[C@@H](CC(=O)O)C(=O)N[C@@H](CC(=O)O)C(=O)N[C@@H](CC(=O)O)C(=O)N[C@@H](CS)C(=O)N1CCC[C@H]1C(=O)N[C@@H](CCCCN)C(=O)N1CCC[C@H]1C(=O)N[C@@H](CCSC)C(=O)N[C@@H](CCCCN)C(=O)N[C@@H](CC(N)=O)C(=O)N[C@@H](CO)C(=O)N[C@@H](Cc1c[nH]cn1)C(=O)N1CCC[C@H]1C(=O)N[C@@H](CC(=O)O)C(=O)N[C@H](C(=O)N[C@@H](Cc1ccc(O)cc1)C(=O)N[C@@H](Cc1ccc(O)cc1)C(=O)N[C@@H](CCCCN)C(=O)N[C@@H](CS)C(=O)N[C@H](C(=O)N[C@@H](CCCCN)C(=O)N[C@@H](Cc1c[nH]cn1)C(=O)N[C@@H](CCCNC(=N)N)C(=O)N[C@@H](CS)C(=O)N[C@@H](CCC(N)=O)C(=O)N[C@@H](Cc1c[nH]c2ccccc12)C(=O)N[C@@H](C)C(=O)N[C@@H](Cc1c[nH]c2ccccc12)C(=O)N[C@@H](CCCCN)C(=O)O)C(C)C)[C@@H](C)O)C(C)C [NCR147] (H-AYIECEVDDDCPKPMKNSHPDTYYKCVKHRCQWAWK-OH; N-terminus assumed)
- Activity against P. aeruginosa [4, 8]: showed activity
- MBC Pseudomonas aeruginosa [4]: 12.5 µM (≈ 54.9 µg/mL)
- Activity against L. monocytogenes [5, 8]: showed activity
- MBC Listeria monocytogenes [5]: 12.5 µM (≈ 54.9 µg/mL)
- Activity against E. coli [6, 8]: showed activity
- MBC Escherichia coli [6]: 25 µM (≈ 110 µg/mL)
- Activity against A. baumannii [3, 8]: showed activity
- MBC Acinetobacter baumannii ([3]; ATCC 17978, 3 h): 3.125 µM (≈ 13.7 µg/mL)

Structure (SMILES): CC[C@H](C)[C@H](NC(=O)CNC(=O)[C@H](CCC(N)=O)NC(=O)[C@@H](NC(=O)[C@H](CS)NC(=O)[C@H](CCCNC(=N)N)NC(=O)[C@H](CC(C)C)NC(=O)[C@H](CCCNC(=N)N)NC(=O)[C@H](CCCNC(=N)N)NC(=O)[C@H](CC(N)=O)NC(=O)[C@@H](NC(=O)[C@H](Cc1ccc(O)cc1)NC(=O)[C@H](CCSC)NC(=O)[C@@H]1CCCN1C(=O)[C@H](Cc1ccc(O)cc1)NC(=O)[C@H](CC(C)C)NC(=O)[C@@H](NC(=O)[C@H](CC(N)=O)NC(=O)[C@H](CS)NC(=O)[C@H](CC(=O)O)NC(=O)[C@@H](NC(=O)[C@H](CC(=O)O)NC(=O)[C@H](CO)NC(=O)[C@@H](NC(=O)[C@H](CS)NC(=O)[C@H](CCC(=O)O)NC(=O)[C@@H](N)CO)[C@@H](C)CC)[C@@H](C)O)C(C)C)[C@@H](C)CC)[C@@H](C)CC)C(=O)N[C@@H](CS)C(=O)N[C@@H](Cc1c[nH]cn1)C(=O)N[C@H](C(=O)N[C@H](C(=O)N[C@H](C(=O)N[C@@H](C)C(=O)N[C@@H](CCCNC(=N)N)C(=O)N[C@@H](CCCNC(=N)N)C(=O)N[C@@H](CCCNC(=N)N)C(=O)O)[C@@H](C)O)[C@@H](C)O)[C@@H](C)O [NCR299] (H-SECISDTDCNVLYPMYINRRLRCIQGICHTTTARRR-OH; N-terminus assumed)
- Antibacterial spectrum over the eight tested bacterial strains [7]: effective against five or four strains
- Ability to kill E. faecalis [1]: able to kill
- MBC Enterococcus faecalis ([1]; ATCC 29212, 3 h): 12.5 µM (≈ 53.2 µg/mL)
- MBC Pseudomonas aeruginosa [4]: 3.125 µM (≈ 13.3 µg/mL)
- MBC Listeria monocytogenes [5]: 12.5 µM (≈ 53.2 µg/mL)
- MBC Escherichia coli [6]: 12.5 µM (≈ 53.2 µg/mL)

Structure (SMILES): CC[C@H](C)[C@H](NC(=O)[C@@H]1CCCN1C(=O)[C@H](CC(C)C)NC(=O)[C@H](CS)NC(=O)[C@H](CCCCN)NC(=O)[C@H](CS)NC(=O)[C@H](CCSC)NC(=O)[C@H](CCCNC(=N)N)NC(=O)[C@H](CCCNC(=N)N)NC(=O)[C@@H](NC(=O)[C@H](CS)NC(=O)[C@H](CCCNC(=N)N)NC(=O)[C@@H]1CCCN1C(=O)[C@H](CCC(=O)O)NC(=O)[C@H](CCSC)NC(=O)CNC(=O)[C@@H]1CCCN1C(=O)[C@@H]1CCCN1C(=O)[C@H](CS)NC(=O)[C@H](CCSC)NC(=O)[C@H](Cc1c[nH]cn1)NC(=O)[C@@H]1CCCN1C(=O)[C@@H]1CCCN1C(=O)[C@H](CS)NC(=O)[C@H](Cc1c[nH]cn1)NC(=O)[C@H](CO)NC(=O)[C@H](CC(=O)O)NC(=O)[C@@H](NC(=O)[C@@H](NC(=O)[C@H](CS)NC(=O)[C@H](CC(C)C)NC(=O)[C@@H](N)Cc1ccc(O)cc1)C(C)C)[C@@H](C)O)C(C)C)C(=O)NCC(=O)N[C@@H](Cc1c[nH]c2ccccc12)C(=O)N[C@@H](CCCNC(=N)N)C(=O)N[C@@H](CCCCN)C(=O)N[C@@H](Cc1ccc(O)cc1)C(=O)N[C@@H](Cc1ccccc1)C(=O)N[C@H](C(=O)N1CCC[C@H]1C(=O)O)C(C)C [NCR336] (H-YLCVTDSHCPPHMCPPGMEPRCVRRMCKCLPIGWRKYFVP-OH; N-terminus assumed)
- Antibacterial spectrum over the eight tested bacterial strains [7]: capable of killing all tested bacteria; also recorded: active against all the eight tested pathogens
- Ability to kill E. faecalis [1]: able to kill

Structure (SMILES): CSCC[C@H](NC(=O)[C@H](CC(N)=O)NC(=O)[C@H](Cc1ccccc1)NC(=O)[C@@H](NC(=O)[C@H](CC(C)C)NC(=O)[C@H](CCCCN)NC(=O)[C@H](CCCCN)NC(=O)[C@H](CCCCN)NC(=O)[C@H](CCCCN)NC(=O)[C@H](CCCCN)NC(=O)[C@H](CC(C)C)NC(=O)[C@H](CCCCN)NC(=O)[C@H](CCCCN)NC(=O)[C@H](CCCCN)NC(=O)[C@H](Cc1c[nH]cn1)NC(=O)[C@H](CCCCN)NC(=O)[C@H](CCC(N)=O)NC(=O)[C@@H](NC(=O)[C@H](CS)NC(=O)[C@@H](N)Cc1ccc(O)cc1)C(C)C)[C@@H](C)O)C(N)=O [PsNCR349_31-50] (H-YCVQKHKKKLKKKKKLTFNM-NH2)
- MFC ([2]; W01 strain): 1.6 µM (≈ 4.03 µg/mL)
- MBC ([3]; ATCC 17978, 3 h): 6.25 µM (≈ 15.8 µg/mL)
